Key:
[1] = system: abo1-1 and wild-type seedlings; assay: Seedling growth on MS medium containing ABA; format: in vivo, Arabidopsis thaliana; details: abo1-1 versus wild type; 5-day-old seedlings transferred to different concentrations of ABA, scored one week later
Protocol: Plants were grown in 340-ml pots filled with a mixture of peat/forest soil and vermiculite (3:1) in a greenhouse at 22° C., with light intensity of 50 μmol m-2 s-1 and 70% rH under long-day conditions (16-h-light/8-h-dark cycle). Seedlings were germinated and grown on Murashige and Skoog (MS) medium (M5519; Sigma) supplemented with 3% (wt/vol) sucrose and 0.8% agar under the same growth conditions.
We also analyzed the ABA sensitivities of abo1-plants in seed germination and seedling growth. Seedlings grown for 5 days on MS medium were transferred to MS media containing different concentrations of ABA. One week later, the plants were scored for visible changes. Without ABA, the root growth of abo1-1 plants was slower than that of wild-type plants but they had similar levels of shoot growth. […] The postgermination growth of abo1-1 seedlings was more impaired than that of the wild type, as indicated by the ratio of seedlings with green cotyledons to the total number of seedlings after germination for 1 week (FIG. 3D).

[2] = system: stomata (guard cells) of abo1-1 and wild-type plants; assay: Stomatal aperture (closing) bioassay with ABA; format: cell-based, Arabidopsis thaliana
Protocol: Stomatal closing assays were conducted as described previously (Pei, Z. M. et al., Plant Cell 9:409-42 (1997)). Rosette leaves were floated in solutions containing 50 μM CaCl2, 10 mM KCl, 10 mM MES [2-(N-morpholino)ethanesulfonic acid]-Tris, pH 6.15, and exposed to light (150 μmol m-2 s-1) for 2 h. […] After ABA treatment for 2 h, stomatal apertures were measured as described previously (Pei, Z. M. et al., Plant Cell 9:409-42 (1997)). Values are means ±standard errors (SE) (n=30). Significance (P<0.05) was assessed by Student's t test.
In order to determine the cause of the drought-resistant phenotype of the abo1-1 mutant, we performed experiments to determine whether this phenotype is related to increased sensitivity of stomatal closure to ABA. abo1-1 and wild-type plants were exposed to high humidity for 12 h to open stomata fully. […]

[3] = system: abo1-1 and wild-type leaves; assay: Oxidative stress: leaves from soil-grown plants treated with MV or H2O2 (damage, ion leakage); design: species or system Arabidopsis thaliana
Protocol: (§1) The leaves taken from plants grown in soil were treated with 1 μM MV. […] Electrolyte leakage (conductivity) is often used as an indicator of tissue damage. […] Rose Bengal is another reagent that generates H2O2 when exposed to the light. […] This was supported by ion leakage measurements at different time points (FIG. 4H).

[4] = system: abo1-1 and wild-type seedlings; assay: Oxidative stress: seedlings on MS medium supplemented with MV; format: in vivo, Arabidopsis thaliana
Description: ABA can induce the expression of genes encoding antioxidant enzymes (Guan, L. et al., Plant Physiol. 117:217-224 (1998); Zhu, D. et al., Plant Physiol. 106:173-178 (1994)). ABA also induces the production of reactive oxygen species that serve as a second messenger in ABA signaling in guard cells (Jiang, M. et al., Plant Cell Physiol. 42:1265-127 (2001); Pei, Z. M. et al., Nature 406:731-73 (2000)). In order to test whether the ABA sensitivity of abo1-1 seedlings might be connected with reactive oxygen species, we analyzed the response of abo1-1 mutant plants to oxidative stress. Methyl viologen (MV) (paraquat) inhibits electron transport in the reduction of NADP to NADPH during photosynthesis and thus enhances H2O2 production in chloroplasts under light (Suntres, Z. E. Toxicology 180:65-7 (2002)). Seedlings grown on MS medium for 5 days were transferred to new MS medium supplemented with different concentrations of MV. The abo1-1 seedlings grew well on MS medium supplemented with 3 μM MV, while more than 50% of wild-type seedlings were killed at this concentration (FIG. 4A) after a 5-day treatment. […] Seed germination was inhibited to similar extents for both abo1-1 and wild-type plants by various concentrations of MV. After radicles emerged, the young seedlings were more sensitive to MV.

[5] = system: abo1 mutant and wild-type seedlings; assay: Oxidative stress: seedlings exposed to Rose Bengal; format: in vivo, Arabidopsis thaliana; details: 10 μM Rose Bengal for 3 days
Protocol: as §1

Compound: CC1=CC(=O)CC(C)(C)[C@@]1(O)/C=C/C(C)=C\C(=O)O [ABA, abscisic acid]
- root and shoot growth [1]: more inhibited than that of the wild type
- stomatal closure ([2]; abo1-1 plants, 1 μM ABA for 2 h): almost completely closed
- ABA concentration enhancing stomatal closure in abo1-1 to the same degree as 10 μM ABA in the wild type ([2]; abo1-1 plants, preopened stomata, FIG. 2B): 0.5 µM
- stomatal closure ([2]; wild-type plants, 20 μM ABA, same treatment time (2 h), data not shown): did not completely close

Compound: OO [H2O2]
- leaf damage ([3]; wild-type leaves versus abo1-1 leaves, 10 mM H2O2 for 5 days): more damaged than abo1-1 leaves

Compound: C[n+]1ccc(-c2cc[n+](C)cc2)cc1 [MV, Methyl viologen]
- cotyledons affected (greening prevented) ([4]; abo1-1, 1.2 μM MV for 10 days): 40%
- seedling growth ([4]; abo1-1 seedlings, 3 μM MV, 5-day treatment): grew well
- seedling survival ([4]; abo1 mutant seedlings, 6 μM MV): still survived
- seedlings with cotyledon greening prevented ([4]; wild-type seedlings, 1.2 μM MV for 10 days): more than 90%
- seedlings killed ([4]; wild-type seedlings, 3 μM MV, 5-day treatment): more than 50%
- seedling survival ([4]; wild-type seedlings, 4 μM MV): completely killed all
- ion leakage (electrolyte leakage, conductivity) ([3]; abo1-1 leaves versus wild type, 1 μM MV): substantially less ion leakage than the wild-type leaves
- leaf damage ([3]; abo1-1 leaves, 1 μM MV, after 5 days): enhanced anthocyanin pigmentation but without any apparent chlorotic symptom
- leaf damage ([3]; wild-type leaves, 1 μM MV, after 5 days): severely damaged and displayed chlorotic spots or bleaching

Compound: O=C([O-])c1c(Cl)c(Cl)c(Cl)c(Cl)c1-c1c2cc(I)c(=O)c(I)c-2oc2c(I)c([O-])c(I)cc12.[Na+].[Na+] [Rose Bengal]
- cotyledon damage ([5]; abo1 mutant): no chlorotic symptom observed
- cotyledon damage ([5]; wild-type seedlings): severely damaged the cotyledons

— patent publication US20090158465A1, “TRANSGENIC PLANTS WITH ENHANCED DROUGHT-RESISTANCE AND METHOD FOR PRODUCING THE PLANTS” (priority 2006, published 2009)
